≈ marks a conversion by molar mass, not a printed value.

The test system of data set [1] is Acinetobacter baumannii. Description: Antibacterial activity against carbapenem-resistant Acinetobacter baumannii CCARM 12005 incubated for 24 hrs by CLSI based broth microdilution method. The format is functional.
Data set [2] deals with Staphylococcus aureus. The data set is described as follows: Antibacterial activity against methicillin-resistant Staphylococcus aureus CCARM 3089 incubated for 24 hrs by CLSI based broth microdilution method. It counts as functional. On the technique in general: Dilution methods test growth across graded concentrations, often in twofold steps.
Data set [3] can be described thus: Effect on secondary structure of drug in SDS assessed as fold increase in formation of alpha-helical conformation at 150 uM by CD analysis relative to HVF18. It counts as physicochemical.
Data set [4] has as its system Pseudomonas aeruginosa. Description: Antibacterial activity against Pseudomonas aeruginosa KCTC 1637 incubated for 24 hrs by CLSI based broth microdilution method. It counts as functional.
The subject of data set [5] is Pseudomonas aeruginosa. Description: Antibacterial activity against multidrug-resistant Pseudomonas aeruginosa CCARM 2095 incubated for 24 hrs by CLSI based broth microdilution method. It counts as functional.
Data set [6] relates to Enterococcus faecium. The data set is described as follows: Antibacterial activity against vancomycin-resistant Enterococcus faecium ATCC 51559 incubated for 24 hrs by CLSI based broth microdilution method. It counts as functional.
Data set [7] deals with Staphylococcus aureus. The data set is described as follows: Antibacterial activity against methicillin-resistant Staphylococcus aureus CCARM 3095 incubated for 24 hrs by CLSI based broth microdilution method. It counts as functional.
The test system of data set [8] is Acinetobacter baumannii. Description: Antibacterial activity against carbapenem-resistant Acinetobacter baumannii NMS 1707 incubated for 24 hrs by CLSI based broth microdilution method. It counts as functional.
The subject of data set [9] is Acinetobacter baumannii. The data set is described as follows: Antibacterial activity against multidrug-resistant Acinetobacter baumannii 329-97 incubated for 24 hrs by CLSI based broth microdilution method. It counts as functional.
Data set [10] has as its system Bacillus subtilis. Description: Antibacterial activity against Bacillus subtilis KCTC 3068 incubated for 24 hrs by CLSI based broth microdilution method. The format is functional.
A short description of data set [11]: Hemolytic activity in sheep RBC at 256 uM incubated for 1 hr by absorbance based assay. Conditions: sheep red blood cells, read-out: Activity. It counts as toxicity, cell-based, Ovis aries, Erythrocyte.
The nature of data set [12]: Hemolytic activity in sheep RBC incubated for 1 hr by absorbance based assay. It counts as toxicity, cell-based, Ovis aries. The following applies: erythrocyte.
The subject of data set [13] is Pseudomonas aeruginosa. Description: Antibacterial activity against multidrug-resistant Pseudomonas aeruginosa CCARM 2109 incubated for 24 hrs by CLSI based broth microdilution method. The format is functional.
Data set [14] is described as follows: Effect on secondary structure of drug in TFE assessed as fold increase in formation of alpha-helical conformation at 150 uM by CD analysis relative to HVF18. The format is physicochemical.
The nature of data set [15]: Hydrophobicity of compound assessed as retention time by RP-HPLC analysis. It counts as physicochemical.
Data set [16] concerns Staphylococcus epidermidis. The data set is described as follows: Antibacterial activity against Staphylococcus epidermidis KCTC 1917 incubated for 24 hrs by CLSI based broth microdilution method. It counts as functional.
Data set [17] concerns Acinetobacter baumannii. Description: Antibacterial activity against carbapenem-resistant Acinetobacter baumannii NMS 1915 incubated for 24 hrs by CLSI based broth microdilution method. It counts as functional.
Data set [18] is described as follows: Effect on secondary structure of drug in PBS assessed as formation of random coil structure at 150 uM by CD analysis. Conditions: buffer. It counts as physicochemical.
In data set [19] the test system is Staphylococcus aureus. The data set is described as follows: Antibacterial activity against methicillin-resistant Staphylococcus aureus CCARM 3090 incubated for 24 hrs by CLSI based broth microdilution method. It counts as functional.
The test system of data set [20] is Salmonella typhimurium. Description: Antibacterial activity against Salmonella typhimurium KCTC 1926 incubated for 24 hrs by CLSI based broth microdilution method. The format is functional, Salmonella enterica subsp. enterica serovar Typhimurium. Conditions: Salmonella enterica.
Data set [21] relates to Staphylococcus aureus. Description: Antibacterial activity against Staphylococcus aureus KCTC 1621 incubated for 24 hrs by CLSI based broth microdilution method. It counts as functional.
Data set [22] deals with Acinetobacter baumannii. Description: Antibacterial activity against multidrug-resistant Acinetobacter baumannii 329-53 incubated for 24 hrs by CLSI based broth microdilution method. The format is functional.
For data set [23], the system named is Escherichia coli. Description: Antibacterial activity against Escherichia coli KCTC 1682 incubated for 24 hrs by CLSI based broth microdilution method. The format is functional.
A short description of data set [24]: Effect on secondary structure of drug in LPS assessed as fold increase in formation of alpha-helical conformation at 150 uM by CD analysis relative to HVF18. It counts as physicochemical.
Data set [25] relates to Pseudomonas aeruginosa. Description: Antibacterial activity against multi-drug resistant Pseudomonas aeruginosa CCARM 2095 incubated for 24 hrs by broth microdilution method. The format is functional.
Data set [26] deals with Staphylococcus aureus. The data set is described as follows: Antibacterial activity against methicillin-resistant Staphylococcus aureus CCARM 3089 incubated for 24 hrs by broth microdilution method. It counts as functional.

As for H-GVFRLKKWIQKVIRQWGR-NH2, the MIC (in general, the smallest concentration in the dilution series that meets the test's criterion for growth inhibition) came out at 4 µM in data set [1]; 8 µM in data set [2]; 8 µM in [4]; 2 µM in [5]; 8 µM in data set [6]; 4 µM in [7]. In addition, the MIC was 2 µM in data set [8]; 2 µM in [9]; 2 µM in [10]; 16 µM in data set [13]; 4 µM in data set [16]; 2 µM in data set [17]. Moreover, the MIC in [19] is 8 µM; in data set [20], 4 µM; in [21], 8 µM; in [22] it was 4 µM; in [23] it was 8 µM. Also, the “fold change (FC)” value in data set [3], in data set [14] and in data set [24] was ~ 5 each time. In data set [11], the hemolysis at 1 h, 256 µM was 21.2%. Besides, in data set [12], the HC10 was determined as 122 µM. Also, the Retention_time in [15] is on record as 25.15 min. In addition, the result in data set [18] was Active.

For the molecule H-HVFRLKKWIQKVIDQFGE-OH, the MIC in data set [1] was 4 µM; in data set [2], above 128 µM; in [4], 128 µM; in data set [5], 128 µM; in [6] it was above 128 µM; in data set [7], above 128 µM. In addition, the MIC in [8] was 32 µM; in [9], 4 µM; in data set [10], 32 µM; in data set [13], above 128 µM; in [16], 16 µM; in data set [17] it was 64 µM. Also, the MIC in data set [19] is above 128 µM; in data set [20] it was 32 µM; in [21], 128 µM; in data set [22] it was 4 µM; in data set [23], 32 µM. Besides, the hemolysis at 1 h, 256 µM in data set [11] was 7.8%. The molecule further yielded an HC10 in [12] above 256 µM. Further, the Retention_time in [15] was 25.53 min.

Take H-GVFRLKKWIRKVIRRWGR-NH2: the MIC in [1] was determined as 8 µM; in data set [2], 4 µM; in [4], 8 µM; in [5] it was 2 µM; in data set [6] it was 4 µM; in data set [7], 8 µM. For the same molecule, the MIC was 8 µM in data set [8]; 2 µM in [9]; 4 µM in data set [10]; 16 µM in [13]; 8 µM in data set [16]; 4 µM in [17]. The MIC stood at 4 µM in [19]; 4 µM in [20]; 8 µM in data set [21]; 8 µM in data set [22]; 16 µM in [23]. The “fold change (FC)” value in [3], in data set [14] and in [24] was ~ 5 in each case. Also, in data set [11], the hemolysis at 1 h, 256 µM stood at 20.4%. The HC10 in data set [12] was determined as 116 µM. In [15], the Retention_time was 22.99 min. In addition, the outcome in [18] was Active.

In the case of H-GVFRLKKWIQKVIKQWGK-NH2, the MIC in [1] amounted to 4 µM; in data set [2] it was 8 µM; in [4], 8 µM; in data set [5], 4 µM; in data set [6], 8 µM; in data set [7] it was 8 µM. The MIC amounted to 2 µM in data set [8]; 1 µM in data set [9]; 4 µM in data set [10]; 16 µM in data set [13]; 4 µM in [16]; 2 µM in [17]. Also, the minimal inhibitory concentration (MIC) in data set [19] worked out at 8 µM; in data set [20] it was 4 µM; in [21], 8 µM; in [22] it was 8 µM; in data set [23], 8 µM. In addition, the “fold change (FC)” value in data set [3], in [14] and in data set [24] was ~ 5 each time. The hemolysis at 1 h, 256 µM in data set [11] is 12.2%. Besides, in [12], the HC10 worked out at 212 µM. Further, the Retention_time in data set [15] came out at 25.16 min. In data set [18], the outcome was Active.

Consider `O=C(N[C@H](CO)[C@H](O)c1ccc([N+](=O)[O-])cc1)C(Cl)Cl` [CHLORAMPHENICOL], for which the MIC amounted to 4100 µM (≈ 1320 µg/mL) in data set [25] and 1020 µM (≈ 331 µg/mL) in [26].

These data come from ChEMBL document CHEMBL6074662, “Antibacterial, Antibiofilm, and Anti-inflammatory Effects of a Novel Thrombin-Derived Peptide in Sepsis Models: Insights into Underlying Mechanisms” (J Med Chem, 2024).
